Test results as given in US5219884A, “Immunosuppressant” (Taito Co., Ltd., priority 1990, dated 1993).
Where two headings read alike, the source gives them in different places.

Assays:
[1] = test system: IL2-dependent mouse cell line CTLL-2; experiment: suppression of IL-2 induced 3H-thymidine incorporation of CTLL-2; assay type: cell-based; conditions: 72 hrs, second run (control 30168 cpm); for inhibition at 0.1 µg/mL / inhibition at 1 µg/mL: Mus musculus, CTLL-2; for inhibition at 0.1 µg/mL: read-out: Suppression
Method: IL2-dependent mouse cell line CTLL-2 cells were suspended in the RPMI1640 culture medium supplemented with 30% FCS to a concentration of 2×10^5 cells/ml. The suspension (50 μl) and 50 μl of concanavalin A-stimulated rat spleen cell culture supernatants containing IL2 were added to each well of 96-well microculture plates in which 100 μl of the test substance had been placed. After culturing at 37° C. in an atmosphere of 5% carbon dioxide for 20, 44, or 68 hours, 0.5 μCi/well of ^3 H-thymidine was added, and cultured for 4 hours under the same conditions. After termination of the culture, the cells were harvested by a cell harvester, and the radioactivity incorporated into the cells was measured by a liquid scintillation counter.

mouse L929 cells = experiment: cytotoxicity to mouse L929 cells; assay type: cell-based; conditions: 550 nm
Method: (§1) Cytotoxicity to mouse L929 cells was assayed as follows:
(§2) L929 cells were suspended to the concentration of 1.5×10^5 cells/ml in the F12 culture medium supplemented with 10% FCS. One hundred μl of the suspension was added to each well of 96-well microculture plates, and cultured at 37° C. in an atmosphere of 5% carbon dioxide for 24 hours, to which 100 μl of the test solution was added and cultured for further 48 hours. After the culture, 100 μl of the supernatant was removed and the absorbancy at 550 nm was measured in the same way as the colormetry using MTT in Experimental Example 1. The percent suppression was calculated by the following formula used as the index of cytotoxicity. [formula]

[2] = cytotoxicity to mouse L929 cells; assay type: cell-based; conditions: mouse, l929 cells, read-out: Suppression
Method: as §1, §2

U937 = experiment: in vitro; assay type: cell-based, human
Method: (§3) Cytotoxicity to human tumor cell lines was examined as follows:
(§4) Cells of human cell lines, K562, MOLT4, U937, HL60, KATOIII, KB, PC-6, PC-14 and CCRF-CEM were separately suspended to the concentration of 2×10^5 cells/ml in the RPMI1640 culture medium supplemented with 20% FCS. Fifty μl of this suspension was added to each well of 96-well microculture plates to which 50 μl of the test solution had been added. After culturing at 37° C. in an atmosphere of 5% carbon dioxide for 72 hours, the absorbancy at 550 nm was measured in the same way as the colorimetry using MTT in Experimental Example 1, and the percent suppression was calculated in the same manner as in Experimental Example 14, which was used as the index of cytotoxicity.

PC-14 = experiment: in vitro; assay type: cell-based, human
Method: as §3, §4

KB = experiment: in vitro; assay type: cell-based, human
Method: as §3, §4

HL60 = experiment: in vitro; assay type: cell-based, human
Method: as §3, §4

CCRF-CEM = experiment: in vitro; assay type: cell-based, human
Method: as §3, §4

in vitro = assay type: cell-based, human; conditions: human, read-out: Suppression
Method: as §3, §4

K562 = experiment: in vitro; assay type: cell-based, human
Method: as §3, §4

MOLT4 = experiment: cytotoxicity to tumor cell line MOLT4; assay type: cell-based, human
Method: as §3, §4

[3] = cytotoxicity to tumor cell line MOLT4; assay type: cell-based, human; conditions: human, molt4 cells, read-out: Suppression
Method: as §3, §4

Compound `CCCCCCC(O)CCCCCCCCCC(O)C(O)C(N)(CO)C(=O)O` (centres unmarked) [Example 9] has a 3H-thymidine uptake ([1]; 0.1 μg/ml) of 33835 cpm, a 3H-thymidine uptake ([1]; 1 μg/ml) of 2247 cpm and an inhibition at 0.1 µg/mL ([1]; 0.1 μg/ml) of 0%. It also gave an inhibition at 1 µg/mL ([1]; 1 μg/ml) of 92.7%, an Absorbancy (mouse L929 cells; 1 μg/ml) of 0.749 and an Absorbancy (mouse L929 cells; 10 μg/ml) of 0.747. It also gave an Absorbancy (mouse L929 cells; 100 μg/ml) of 0.567, a cytotoxicity at 48 h ([2]; 1 μg/ml) of 0% and a cytotoxicity at 48 h ([2]; 10 μg/ml) of 0%. It also gave a cytotoxicity at 48 h ([2]; 100 μg/ml) of 1%, an Absorbancy (U937; 0.1 μg/ml) of 0.640 and an Absorbancy (U937; 1.0 μg/ml) of 0.592. For the same compound, the Absorbancy (U937; 10.0 μg/ml) was 0.584, the Absorbancy (PC-14; 0.1 μg/ml) was 0.404 and the Absorbancy (PC-14; 1.0 μg/ml) was 0.441. It also gave an Absorbancy (PC-14; 10.0 μg/ml) of 0.374, an Absorbancy (KB; 0.1 μg/ml) of 0.778 and an Absorbancy (KB; 1.0 μg/ml) of 0.762. It also gave an Absorbancy (KB; 10.0 μg/ml) of 0.696, an Absorbancy (HL60; 0.1 μg/ml) of 0.450 and an Absorbancy (HL60; 1.0 μg/ml) of 0.435. The Absorbancy (HL60; 10.0 μg/ml) was 0.413, the Absorbancy (CCRF-CEM; 0.1 μg/ml) was 0.702 and the Absorbancy (CCRF-CEM; 1.0 μg/ml) was 0.696. For the same compound, the Absorbancy (CCRF-CEM; 10.0 μg/ml) was 0.680, the cytotoxicity at 72 h (in vitro; ccrf-cem cells, 0.1 μg/ml) was 0% and the cytotoxicity at 72 h (in vitro; ccrf-cem cells, 1.0 μg/ml) was 0%. For the same compound, the cytotoxicity at 72 h (in vitro; ccrf-cem cells, 10.0 μg/ml) was 1.7%, the cytotoxicity at 72 h (in vitro; hl60 cells, 0.1 μg/ml) was 13.8% and the cytotoxicity at 72 h (in vitro; hl60 cells, 1.0 μg/ml) was 16.7%. It also gave a cytotoxicity at 72 h (in vitro; hl60 cells, 10.0 μg/ml) of 20.9%, a cytotoxicity at 72 h (in vitro; k562 cells, 0.1 μg/ml) of 1.8% and a cytotoxicity at 72 h (in vitro; k562 cells, 1.0 μg/ml) of 5.5%. It also gave a cytotoxicity at 72 h (in vitro; k562 cells, 10.0 μg/ml) of 17.7%, a cytotoxicity at 72 h (in vitro; kb cells, 0.1 μg/ml) of 0% and a cytotoxicity at 72 h (in vitro; kb cells, 1.0 μg/ml) of 0%. For the same compound, the cytotoxicity at 72 h (in vitro; kb cells, 10.0 μg/ml) was 4.7%, the cytotoxicity at 72 h (in vitro; pc-14 cells, 0.1 μg/ml) was 14.8% and the cytotoxicity at 72 h (in vitro; pc-14 cells, 1.0 μg/ml) was 7%. It also gave a cytotoxicity at 72 h (in vitro; pc-14 cells, 10.0 μg/ml) of 21.1%, a cytotoxicity at 72 h (in vitro; u937 cells, 0.1 μg/ml) of 0% and a cytotoxicity at 72 h (in vitro; u937 cells, 1.0 μg/ml) of 0%. The cytotoxicity at 72 h (in vitro; u937 cells, 10.0 μg/ml) was 0%, the Absorbancy (K562; 0.1 μg/ml) was 0.378 and the Absorbancy (K562; 1.0 μg/ml) was 0.364. It also gave an Absorbancy (K562; 10.0 μg/ml) of 0.317, an Absorbancy (MOLT4; 0.1 μg/ml) of 0.111 and an Absorbancy (MOLT4; 1.0 μg/ml) of 0.132. It also gave an Absorbancy (MOLT4; 10.0 μg/ml) of 0.142, a cytotoxicity at 72 h ([3]; 0.1 μg/ml) of 23.4% and a cytotoxicity at 72 h ([3]; 1.0 μg/ml) of 9%. It also gave a cytotoxicity at 72 h ([3]; 10.0 μg/ml) of 2.1%.

`CCCCCCC(O)CCCCCCCCCC1OC(=O)C(N)(CO)C1O` (centres unmarked) [Example 10] showed a 3H-thymidine uptake ([1]; 0.1 μg/ml) of 28083 cpm, a 3H-thymidine uptake ([1]; 1 μg/ml) of 1844 cpm and an inhibition at 0.1 µg/mL ([1]; 0.1 μg/ml) of 6.9%. It also gave an inhibition at 1 µg/mL ([1]; 1 μg/ml) of 94.1%, an Absorbancy (mouse L929 cells; 1 μg/ml) of 0.722 and an Absorbancy (mouse L929 cells; 10 μg/ml) of 0.661. For the same compound, the Absorbancy (mouse L929 cells; 100 μg/ml) was 0.023, the cytotoxicity at 48 h ([2]; 1 μg/ml) was 0% and the cytotoxicity at 48 h ([2]; 10 μg/ml) was 0%. For the same compound, the cytotoxicity at 48 h ([2]; 100 μg/ml) was 96%, the Absorbancy (U937; 0.1 μg/ml) was 0.545 and the Absorbancy (U937; 1.0 μg/ml) was 0.541. For the same compound, the Absorbancy (U937; 10.0 μg/ml) was 0.517, the Absorbancy (PC-14; 0.1 μg/ml) was 0.433 and the Absorbancy (PC-14; 1.0 μg/ml) was 0.411. The Absorbancy (PC-14; 10.0 μg/ml) was 0.317, the Absorbancy (KB; 0.1 μg/ml) was 0.743 and the Absorbancy (KB; 1.0 μg/ml) was 0.735. The Absorbancy (KB; 10.0 μg/ml) was 0.610, the Absorbancy (HL60; 0.1 μg/ml) was 0.447 and the Absorbancy (HL60; 1.0 μg/ml) was 0.415. It also gave an Absorbancy (HL60; 10.0 μg/ml) of 0.406, an Absorbancy (CCRF-CEM; 0.1 μg/ml) of 0.672 and an Absorbancy (CCRF-CEM; 1.0 μg/ml) of 0.647. The Absorbancy (CCRF-CEM; 10.0 μg/ml) was 0.645, the cytotoxicity at 72 h (in vitro; ccrf-cem cells, 0.1 μg/ml) was 2.9% and the cytotoxicity at 72 h (in vitro; ccrf-cem cells, 1.0 μg/ml) was 6.5%. For the same compound, the cytotoxicity at 72 h (in vitro; ccrf-cem cells, 10.0 μg/ml) was 6.8%, the cytotoxicity at 72 h (in vitro; hl60 cells, 0.1 μg/ml) was 14.4% and the cytotoxicity at 72 h (in vitro; hl60 cells, 1.0 μg/ml) was 20.5%. It also gave a cytotoxicity at 72 h (in vitro; hl60 cells, 10.0 μg/ml) of 22.3%, a cytotoxicity at 72 h (in vitro; k562 cells, 0.1 μg/ml) of 0% and a cytotoxicity at 72 h (in vitro; k562 cells, 1.0 μg/ml) of 10.9%. The cytotoxicity at 72 h (in vitro; k562 cells, 10.0 μg/ml) was 19.2%, the cytotoxicity at 72 h (in vitro; kb cells, 0.1 μg/ml) was 0% and the cytotoxicity at 72 h (in vitro; kb cells, 1.0 μg/ml) was 0%. For the same compound, the cytotoxicity at 72 h (in vitro; kb cells, 10.0 μg/ml) was 16.4%, the cytotoxicity at 72 h (in vitro; pc-14 cells, 0.1 μg/ml) was 8.6% and the cytotoxicity at 72 h (in vitro; pc-14 cells, 1.0 μg/ml) was 13.3%. The cytotoxicity at 72 h (in vitro; pc-14 cells, 10.0 μg/ml) was 33.1%, the cytotoxicity at 72 h (in vitro; u937 cells, 0.1 μg/ml) was 6.5% and the cytotoxicity at 72 h (in vitro; u937 cells, 1.0 μg/ml) was 7.2%. It also gave a cytotoxicity at 72 h (in vitro; u937 cells, 10.0 μg/ml) of 11.3%, an Absorbancy (K562; 0.1 μg/ml) of 0.390 and an Absorbancy (K562; 1.0 μg/ml) of 0.343. The Absorbancy (K562; 10.0 μg/ml) was 0.311, the Absorbancy (MOLT4; 0.1 μg/ml) was 0.148 and the Absorbancy (MOLT4; 1.0 μg/ml) was 0.159. The Absorbancy (MOLT4; 10.0 μg/ml) was 0.170, the cytotoxicity at 72 h ([3]; 0.1 μg/ml) was 0% and the cytotoxicity at 72 h ([3]; 1.0 μg/ml) was 0%. The cytotoxicity at 72 h ([3]; 10.0 μg/ml) was 0%.
